Values quoted from earlier work, collected in patent US20140080845A1, “USE OF ALLOPURINOL FOR THE TREATMENT OF HAND FOOT SKIN REACTION” (NOBERA PHARMA, S.L., priority 2009, published 2014).
Like-named read-outs stand apart in the source and are kept apart here.

Key:
[1] = meta-analysis, treated patients

Row | SMILES | summary incidence of HFSR, grade 3 [1] [%] | summary incidence of HFSR, grades 1-3 [1] [%] | solubility (in chloroform and in ether) | solubility (in dilute solutions of alkali hydroxides) | solubility (in water and alcohol)
1 | CCN(CC)CCNC(=O)c1c(C)[nH]c(/C=C2\C(=O)Nc3ccc(F)cc32)c1C [sunitinib] | 5.5 | 18.9 |  |  | 
2 | Oc1ncnc2[nH]ncc12 [Allopurinol, 1H-pyrazolo[3,4-d] pyrimidin-4-ol] |  |  | practically insoluble | dissolves | very slightly soluble
3 | CNC(=O)c1cc(Oc2ccc(NC(=O)Nc3ccc(Cl)c(C(F)(F)F)c3)cc2)ccn1 [sorafenib] | 8.9 | 33.8 |  |  | 
